# Measured values: patent US4069318A, “N^2 -Alkoxynaphthalenesulfonyl-L-argininamides and the pharmaceutically acceptable salts thereof” (Mitsubishi Chemical Industries Ltd., priority 1974, dated 1978)
# Target: T1, thrombin (Bos taurus, UniProt P00735)
# T1 construct: bovine fibrinogen as substrate
# Assay: fibrinogen coagulation time (thrombin-induced)
# Assay type: biochemical
# Details: bovine fibrinogen, thrombin 5 units/ml, borate saline buffer pH 7.4, 25° C; control 50-55 seconds; read-out: Concentration required to prolong the coagulation time by a factor of two
# Protocol: Immediately after mixing, the reaction mixture was transferred from the ice bath to a bath maintained at 25° C. Coagulation times were taken as the period between the time of transference to the 25° C bath and the time of the first appearance of fibrin threads.
row,SMILES,IC (2-fold clotting time) [µM]
1,"COc1cccc2c(S(=O)(=O)N[C@@H](CCCNC(=N)N)C(=O)N(CC(=O)O)Cc3ccccc3)cccc12 [Sample 18, N^2-(5-methoxy-1-naphthalenesulfonyl)-L-arginyl-N-benzylglycine]",2

# System: not listed separately
# Assay: acute toxicity (LD50) by intraperitoneal administration in mice
# Details: mouse, in vivo, ip, mice (male, 20 g)
# From the text: On the other hand, LD50 values for N^2 -dansyl-N-butyl-L-argininamide and N^2 -dansyl-N-methyl-N-butyl-L-argininamide are 75 and 70 milligrams per kilogram, respectively.
row,SMILES,LD50 [mg/kg]
1,"CCCCNC(=O)[C@H](CCCNC(=N)N)NS(=O)(=O)c1cccc2c(N(C)C)cccc12 [N^2 -dansyl-N-butyl-L-argininamide, reference compound]",75
2,"CCCCN(C)C(=O)[C@H](CCCNC(=N)N)NS(=O)(=O)c1cccc2c(N(C)C)cccc12 [N^2 -dansyl-N-methyl-N-butyl-L-argininamide, reference compound]",70
3,"COc1cc2ccc(S(=O)(=O)N[C@@H](CCCNC(=N)N)C(=O)N(CC(=O)O)Cc3ccccc3)cc2cc1OC [Sample 2, N^2-(6,7-dimethoxy-2-naphthalenesulfonyl)-L-arginyl-N-benzylglycine]",> 1000
4,"COc1cc2ccc(S(=O)(=O)N[C@@H](CCCNC(=N)N)C(=O)N(CCc3ccccc3)CC(=O)O)cc2cc1OC [Sample 6, N^2-(6,7-dimethoxy-2-naphthalenesulfonyl)-L-arginyl-N-phenethylglycine]",> 1500
5,"COc1ccc2cc(S(=O)(=O)N[C@@H](CCCNC(=N)N)C(=O)N(CC(=O)O)Cc3ccccc3)cc(OC)c2c1 [Sample 10, N^2-(4,6-dimethoxy-2-naphthalenesulfonyl)-L-arginyl-N-benzylglycine]",> 1000
6,"COc1cccc2c(S(=O)(=O)N[C@@H](CCCNC(=N)N)C(=O)N(CC(=O)O)Cc3ccccc3)cccc12 [Sample 18, N^2-(5-methoxy-1-naphthalenesulfonyl)-L-arginyl-N-benzylglycine]",> 1000
